# Legend:
# [1] = system: HCC1954 breast cancer xenograft; assay: HCC1954 xenograft efficacy study; type: in vivo, mouse; conditions: Alpelisib 50 mg/kg QD, Day 28
# [2] = system: insulin-mediated glucose uptake in primary human subcutaneous adipocytes; assay: Human adipocyte 3H-2-deoxyglucose uptake; type: cell-based
# Experimental: Primary human subcutaneous adipocytes were treated with a test compound or vehicle for 1 hour followed by the addition of 10 nmol/L insulin and ^3H-2-deoxyglucose (Zen Bio Durham, assay #CA-25, Lot #SL0071). Cytochalasin B treatment controlled for nonspecific glucose uptake. Corrected counts per minute were determined using a scintillation counter.
# [3] = system: NCI-H1048 lung carcinoma xenograft; assay: NCI-H1048 xenograft efficacy study; type: in vivo, mouse; conditions: Alpelisib 50 mg/kg QD, Day 23
# OAW42 cells = assay: Cell viability CellTiter-Glo; type: cell-based; conditions: Homo sapiens, OAW-42; OAW42, H1047L; 72 hours; read-out: CTGlo GMean GI50 (95% CI)
# Experimental: (§1) Cell viability was measured using CellTiter-Glo (Promega, #G9243). Indicated cell lines were seeded according to Supplementary Table S3 in 50 μL of media in 384-well plates, with 72 hours of treatment at 37°C with 5% CO2.
# DETROIT562 cells = assay: Cell viability CellTiter-Glo; type: cell-based; conditions: Homo sapiens, Detroit 562; DETROIT562, H1047R; 72 hours; read-out: CTGlo GMean GI50 (95% CI)
# Experimental: as §1
# SKBR3 cells = assay: Cell viability CellTiter-Glo; type: cell-based; conditions: Homo sapiens, SK-BR-3; SKBR3, WT PI3Kα; 72 hours; read-out: CTGlo GMean GI50 (95% CI)
# Experimental: as §1
# NCIH1048 cells = assay: Cell viability CellTiter-Glo; type: cell-based; conditions: Homo sapiens, NCI-H1048; NCIH1048, H1047R + K111R; 72 hours; read-out: CTGlo GMean GI50 (95% CI)
# Experimental: as §1
# HCC1954 cells = assay: Cell viability CellTiter-Glo; type: cell-based; conditions: Homo sapiens; HCC1954, H1047R; 72 hours; read-out: CTGlo GMean GI50 (95% CI)
# Experimental: as §1
# T47D cells = assay: Cell viability CellTiter-Glo; type: cell-based; conditions: Homo sapiens, H1047R, 72 hours, read-out: CTGlo GMean GI50 (95% CI)
# Experimental: as §1
# GP2D cells = assay: Cell viability CellTiter-Glo; type: cell-based; conditions: Homo sapiens, H1047L, 72 hours, read-out: CTGlo GMean GI50 (95% CI)
# Experimental: as §1
# BT20 cells = assay: Cell viability CellTiter-Glo; type: cell-based; conditions: Homo sapiens, BT-20; BT20, H1047R + P539R; 72 hours; read-out: CTGlo GMean GI50 (95% CI)
# Experimental: as §1
# EFM19 cells = assay: Cell viability CellTiter-Glo; type: cell-based; conditions: Homo sapiens, EFM-19; EFM19, H1047L; 72 hours; read-out: CTGlo GMean GI50 (95% CI)
# Experimental: as §1
# CAL148 cells = assay: Cell viability CellTiter-Glo; type: cell-based; conditions: Homo sapiens, CAL-148; CAL148, H1047R + D350N; 72 hours; read-out: CTGlo GMean GI50 (95% CI)
# Experimental: as §1
# CAL33 cells = assay: Cell viability CellTiter-Glo; type: cell-based; conditions: Homo sapiens, CAL-33; CAL33, H1047R; 72 hours; read-out: CTGlo GMean GI50 (95% CI)
# Experimental: as §1
# [4] = alpelisib with ribociclib and fulvestrant, in the clinic; cited from earlier work
# [5] = system: CAL-33 (H1047R PI3Kα) HNSCC xenograft; assay: CAL-33 xenograft efficacy study; type: in vivo, mouse; conditions: Alpelisib 50 mg/kg QD, Day 28
# [6] = system: T47D ER+HER2- breast cancer xenograft; assay: T47D xenograft efficacy study; type: in vivo, mouse; conditions: Alpelisib 50 mg/kg QD, Day 20
# [7] = system: PI3Kα-mutant, ER+HER2- metastatic breast cancer; conditions: alpelisib in combination with fulvestrant, median follow-up 20 months; cited from earlier work
# [8] = cited from earlier work
# [9] = Insulin tolerance test (ITT) and oral glucose tolerance test (OGTT); type: in vivo, mouse; conditions: 50 mg/kg dose levels
# [10] = Tolerability measures in CDX studies: body weight and insulin 1 hour after dose; conditions: for Δ Insulin: Alpelisib 50 mg/kg QD, one-hour post dose
# [11] = system: Detroit 562 HNSCC xenograft; assay: Detroit 562 xenograft efficacy study; type: in vivo, mouse
# [12] = system: pAKT (S473) in CAL-33 tumors; assay: CAL-33 tumor PK/PD, pAKT/AKT Western blot; type: in vivo, mouse; conditions: 50 mg/kg q.d.
# [13] = system: GP2d colon cancer xenograft; assay: GP2d xenograft efficacy study; type: in vivo, mouse
# [14] = system: pAKT (S473) in BT20 cells; assay: pAKT (S473) HTRF; type: cell-based; conditions: Homo sapiens, BT-20; BT20, H1047R + P539R; 1 hour; read-out: pAKT HTRF GMean IC50 (95% CI)
# Experimental: (§2) A 384-well phospho-AKT (S473) HTRF (Homogenous Time-Resolve Fluorescence; PerkinElmer, #64AKSPEH) assay was used for target engagement. Each well was seeded with cell numbers indicated in Supplementary Table S3 in a volume of 12.5 μL in complete, phenol red-free media and then treated for 1 hour at 37°C with 5% CO2 before reading on a PHERAstar plate reader.
# [15] = system: pAKT (S473) in panel of human tumor cell lines harboring PI3Kα kinase-domain mutations and SKBR3; assay: pAKT (S473) HTRF, human tumor cell line panel; type: cell-based; conditions: SK-BR-3, 1 hour treatment, read-out: pAKT IC50 values across the panel of cell lines
# Experimental: as §2
# [16] = patients; cited from earlier work
# [17] = STX-478 100 mg/kg q.d., alpelisib 50 mg/kg q.d.
smiles,measurement,setting,value
Cc1nc(NC(=O)N2CCC[C@H]2C(N)=O)sc1-c1ccnc(C(C)(C)C(F)(F)F)c1 [alpelisib],TGI (%),[1],77%
same,glucose uptake inhibition,[2]; 10 μmol/L,nearly complete inhibition
same,Emax,"[2]; Homo sapiens, Adipocyte, 10 nmol/L insulin, read-out: maximum effect (Emax) for glucose uptake inhibition",88%
same,TGI (%),[3],87%
same,GI50,OAW42 cells,601 nM
same,GI50,DETROIT562 cells,436 nM
same,GI50,SKBR3 cells,335 nM
same,GI50,NCIH1048 cells,67 nM
same,GI50,HCC1954 cells,384 nM
same,GI50,T47D cells,334 nM
same,GI50,GP2D cells,298 nM
same,GI50,BT20 cells,516 nM
same,GI50,EFM19 cells,127 nM
same,GI50,CAL148 cells,962 nM
same,GI50,CAL33 cells,340 nM
same,tolerability of triple combination,[4],not tolerated in the clinic
same,TGI (%),[5],79%
same,TGI (%),[6],100%
same,progression-free survival time,[7],11.0 months
same,exposure of the maximum approved human dose (AUC),[8],"~33,000 ng*h/mL"
same,insulin resistance,[9],overt insulin resistance
same,Δ Insulin,[10]; Cal33 model,+1.07 ng/mL
same,Δ Insulin,[10]; Detroit 562 model,+2.33 ng/mL
same,Δ Insulin,[10]; GP2D model,+1.59 ng/mL
same,Δ Insulin,[10]; HCC1954 model,+2.38 ng/mL
same,Δ Insulin,[10]; NCI-H1048 model,+1.21 ng/mL
same,effects on body weight across studies,[10]; [17],No treatment-specific effects on body weight
same,Δ Insulin,[10]; T-47D model,+0.79 ng/mL
same,TGI (%),"[11]; Alpelisib 50 mg/kg QD, Day 22",96%
same,tumor regressions,[11]; [17],tumor regressions in five of the nine study animals
same,average pAKT suppression (treated/vehicle AUC1–12h),[12],66%
same,TGI (%),"[13]; Alpelisib 50 mg/kg QD, Day 28",79%
same,tumor regressions (waterfall plot),[13]; [17],no regression
same,IC50,[14],136 nM
same,IC50,[15],28 to 268 nM
same,rate of permanent discontinuations,[16],≤ 46%
same,rate of safety-related dose reduction,[16],up to 42%
